One experiment deals with T1, human TLR9 (Homo sapiens, UniProt Q9NR96).
T1 construct: host or cells: HEK-Blue cells
T1 sequence (Q9NR96 26-1032): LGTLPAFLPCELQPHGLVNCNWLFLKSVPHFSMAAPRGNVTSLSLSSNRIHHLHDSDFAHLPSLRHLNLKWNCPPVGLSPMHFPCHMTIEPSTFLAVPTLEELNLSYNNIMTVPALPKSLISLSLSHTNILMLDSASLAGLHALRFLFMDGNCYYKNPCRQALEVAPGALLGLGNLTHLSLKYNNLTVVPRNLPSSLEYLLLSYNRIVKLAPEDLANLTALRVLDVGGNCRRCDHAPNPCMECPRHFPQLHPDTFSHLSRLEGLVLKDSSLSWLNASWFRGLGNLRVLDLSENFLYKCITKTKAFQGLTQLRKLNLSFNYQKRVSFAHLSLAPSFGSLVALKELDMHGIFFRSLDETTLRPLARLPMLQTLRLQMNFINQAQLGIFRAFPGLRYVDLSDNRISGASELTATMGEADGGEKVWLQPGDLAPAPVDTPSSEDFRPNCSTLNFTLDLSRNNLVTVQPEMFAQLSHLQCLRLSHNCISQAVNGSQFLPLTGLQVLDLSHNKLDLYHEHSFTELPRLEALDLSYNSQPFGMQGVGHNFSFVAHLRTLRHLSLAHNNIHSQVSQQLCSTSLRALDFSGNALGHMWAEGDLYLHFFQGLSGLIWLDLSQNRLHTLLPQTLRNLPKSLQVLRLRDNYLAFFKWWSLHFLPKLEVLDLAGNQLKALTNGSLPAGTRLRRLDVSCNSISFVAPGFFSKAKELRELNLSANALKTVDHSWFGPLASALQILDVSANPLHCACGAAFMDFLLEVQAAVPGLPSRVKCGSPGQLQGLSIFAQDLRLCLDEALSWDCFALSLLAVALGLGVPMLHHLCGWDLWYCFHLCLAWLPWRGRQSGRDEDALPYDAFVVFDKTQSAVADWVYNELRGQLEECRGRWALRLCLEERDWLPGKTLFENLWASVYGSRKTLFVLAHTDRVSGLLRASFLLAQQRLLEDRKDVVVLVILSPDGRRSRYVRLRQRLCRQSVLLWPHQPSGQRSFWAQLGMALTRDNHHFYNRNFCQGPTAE
Description: TLR9 inhibition reporter assay (HEK-Blue SEAP reporter). The class given is cell-based. The conditions noted are these: HEK-Blue cells overexpressing human TLR9; ODN2006 5 nM; 22 hour incubation. The procedure: (§1) TLR7/8/9 Inhibition Reporter Assays
(§2) HEK-Blue™-cells (Invivogen) overexpressing human TLR7, TLR8 or TLR9 receptors were used for screening inhibitors of these receptors using an inducible SEAP (secreted embryonic alkaline phosphatase) reporter gene under the control of the IFN-β minimal promoter fused to five NF-κB and AP-1-binding sites. Briefly, cells are seeded into Greiner 384 well plates (15000 cells per well for TLR7, 20,000 for TLR8 and 25,000 for TLR9) and then treated with test compounds in DMSO to yield a final dose response concentration range of 0.05 nM-50 μM. After a 30 minute compound pre-treatment at room temperature, the cells are then stimulated with a TLR7 ligand (gardiquimod at a final concentration of 7.5 μM), TLR8 ligand (R848 at a final concentration of 15.9 μM) or TLR9 ligand (ODN2006 at a final concentration of 5 nM) to activate NF-κB and AP-1 which induce the production of SEAP. After a 22 hour incubation at 37° C., 5% CO2, SEAP levels are determined with the addition of HEK-Blue™ Detection reagent (Invivogen), a cell culture medium that allows for detection of SEAP, according to manufacturer's specifications. The percent inhibition is determined as the % reduction in the HEK-Blue signal present in wells treated with agonist plus DMSO alone compared to wells treated with a known inhibitor.

The target of the next experiment is T2, human TLR7 (Homo sapiens, UniProt Q9NYK1).
T2 construct: host or cells: HEK-Blue cells
T2 sequence (Q9NYK1 27-1049): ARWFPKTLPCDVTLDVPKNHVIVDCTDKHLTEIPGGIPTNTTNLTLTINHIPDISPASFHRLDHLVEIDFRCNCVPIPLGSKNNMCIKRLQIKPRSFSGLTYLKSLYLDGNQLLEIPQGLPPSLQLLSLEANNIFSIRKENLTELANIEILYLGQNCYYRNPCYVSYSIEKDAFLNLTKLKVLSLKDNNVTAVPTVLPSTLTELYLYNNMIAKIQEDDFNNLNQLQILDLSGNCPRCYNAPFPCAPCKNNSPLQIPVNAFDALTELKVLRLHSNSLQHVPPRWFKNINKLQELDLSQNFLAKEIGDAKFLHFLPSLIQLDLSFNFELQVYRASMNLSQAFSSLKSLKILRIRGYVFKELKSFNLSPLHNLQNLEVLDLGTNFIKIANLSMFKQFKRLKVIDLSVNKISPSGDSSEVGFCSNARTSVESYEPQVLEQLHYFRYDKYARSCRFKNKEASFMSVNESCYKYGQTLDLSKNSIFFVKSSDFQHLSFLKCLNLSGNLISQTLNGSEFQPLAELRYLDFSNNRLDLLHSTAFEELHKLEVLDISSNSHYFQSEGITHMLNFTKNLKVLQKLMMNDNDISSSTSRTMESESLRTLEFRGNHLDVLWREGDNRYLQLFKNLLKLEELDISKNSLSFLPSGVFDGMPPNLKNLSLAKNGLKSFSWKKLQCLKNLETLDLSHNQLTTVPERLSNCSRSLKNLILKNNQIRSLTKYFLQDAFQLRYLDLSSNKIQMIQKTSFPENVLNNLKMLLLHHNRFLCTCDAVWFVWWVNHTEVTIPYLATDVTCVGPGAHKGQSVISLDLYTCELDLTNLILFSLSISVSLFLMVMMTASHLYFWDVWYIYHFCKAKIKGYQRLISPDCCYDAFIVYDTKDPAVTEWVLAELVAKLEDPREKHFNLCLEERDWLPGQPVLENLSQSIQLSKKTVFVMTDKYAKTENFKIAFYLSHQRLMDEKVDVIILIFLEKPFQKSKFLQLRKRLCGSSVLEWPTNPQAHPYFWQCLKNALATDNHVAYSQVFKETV
The experiment in a line: TLR7 inhibition reporter assay (HEK-Blue SEAP reporter). It counts as cell-based. The conditions noted are these: HEK-Blue cells overexpressing human TLR7; gardiquimod 7.5 μM; 22 hour incubation. The procedure: as §1, §2
A general note: A reporter such as luciferase makes a cellular process visible.

The term IC50 denotes the point on the concentration scale where inhibition reaches its midpoint. A low value points to greater potency. Turning to `CCc1c(-c2ccnc(C)c2)[nH]c2ccc(N3CCN(C4CCN(CC(C)C)CC4)CC3)cc12` [Example 152, 3-ethyl-5-(4-(1-isobutylpiperidin-4-yl)piperazin-1-yl)-2-(2-methylpyridin-4-yl)-1H-indole], the IC50 against human TLR9 was determined as 342 nM; on human TLR7, 2220 nM.

As for `Cc1c(-c2ccnc3[nH]ccc23)[nH]c2ccc(N3CCC4(CCN(Cc5cccn5C)CC4)CC3)cc12` [Example 189, 3-((1-methyl-1H-pyrrol-2-yl)methyl)-9-(3-methyl-2-(1H-pyrrolo[2,3-b]pyridin-4-yl)-1H-indol-5-yl)-3,9-diazaspiro[5.5]undecane], the IC50 against human TLR9 stood at 441 nM; against human TLR7 it was 16100 nM.

`COc1ccc(-c2[nH]c3ccc(NC4CCC(N5CCN(CCCN6CCCC6)CC5)CC4)cc3c2C(C)C)cc1OC` (stereo not shown) [Example 67, 2-(3,4-dimethoxyphenyl)-3-isopropyl-N-(4-(4-(3-(pyrrolidin-1-yl)propyl)piperazin-1-yl)cyclohexyl)-1H-indol-5-amine]: the IC50 worked out at 589 nM at human TLR9 and 322 nM on human TLR7.

In the case of `CCc1c(-c2ccc(OC)c(OC)c2)[nH]c2ccc(N3CCC(OC4CCNCC4)CC3)cc12` [Example 132, 2-(3,4-dimethoxyphenyl)-3-ethyl-5-(4-(piperidin-4-yloxy)piperidin-1-yl)-1H-indole], the IC50 turned out to be 1050 nM at human TLR9 and 250 nM against human TLR7.

Regarding `COc1ccc(-c2[nH]c3ccc(NC4CCC(N5CCN(CCN6CCCC6)CC5)CC4)cc3c2C(C)C)cc1OC` (stereo not shown) [Example 63, 2-(3,4-dimethoxyphenyl)-3-isopropyl-N-(4-(4-(2-(pyrrolidin-1-yl)ethyl)piperazin-1-yl)cyclohexyl)-1H-indol-5-amine], the results for the IC50 on human TLR9 and at human TLR7 were 405 nM and 257 nM, respectively.

For the compound `COc1ccc(-c2[nH]c3ccc(NC4CCC(N5CCN(C6CCCC6)CC5)CC4)cc3c2C(C)C)cc1OC` (stereo not shown) [Example 58, N-(4-(4-cyclopentylpiperazin-1-yl)cyclohexyl)-2-(3,4-dimethoxyphenyl)-3-isopropyl-1H-indol-5-amine], the IC50 against human TLR9 was 1080 nM; on human TLR7 it was 351 nM.

As to `CCc1c(-c2ccc(OC)c(OC)c2)[nH]c2ccc(N3CCC(OC4CCN(C5CC(C)(C)NC(C)(C)C5)CC4)CC3)cc12` [Example 193, 2-(3,4-dimethoxyphenyl)-3-ethyl-5-(4-((2′,2′,6′,6′-tetramethyl-[1,4′-bipiperidin]-4-yl)oxy)piperidin-1-yl)-1H-indole], the IC50 came to 546 nM on human TLR9 and 81 nM against human TLR7.

With `CCN1CCN(C2CCC(Nc3ccc4[nH]c(-c5ccc(OC)c(OC)c5)c(C(C)C)c4c3)CC2)CC1` (stereo not shown) [Example 38, 2-(3,4-dimethoxyphenyl)-N-(4-(4-ethylpiperazin-1-yl)cyclohexyl)-3-isopropyl-1H-indol-5-amine], the IC50 against human TLR9 turned out to be 716 nM; at human TLR7, 450 nM.

As for `CCc1c(-c2ccc(OC)c(OC)c2)[nH]c2ccc(N3CCCN(C4CCN(C(C)C)CC4)CC3)cc12` [Example 180, 2-(3,4-dimethoxyphenyl)-3-ethyl-5-(4-(1-isopropylpiperidin-4-yl)-1,4-diazepan-1-yl)-1H-indole], the IC50 on human TLR9 was determined as 652 nM; against human TLR7, 537 nM.

As to `COc1ccc(-c2[nH]c3ccc(NC4CCC(NCCN(C)C)CC4)cc3c2C(C)C)cc1OC` (stereo not shown) [Example 32, N1-(2-(3,4-dimethoxyphenyl)-3-isopropyl-1H-indol-5-yl)-N4-(2-(dimethylamino)ethyl)cyclohexane-1,4-diamine], the IC50 is 610 nM against human TLR9 and 191 nM on human TLR7.

Consider `CCc1c(-c2ccnc(OC)c2)[nH]c2ccc(N3CCN(CCNC)CC3)cc12` [Example 137, 2-(4-(3-ethyl-2-(2-methoxypyridin-4-yl)-1H-indol-5-yl)piperazin-1-yl)-N-methylethan-1-amine], for which the IC50 came out at 2960 nM at human TLR9 and 70 nM at human TLR7.

`COc1ccc(-c2[nH]c3ccc(NC4CCC(N5CCN(C(C)=O)CC5)CC4)cc3c2C(C)C)cc1OC` (single isomer, unassigned) [Example 44, 1-(4-(4-((2-(3,4-dimethoxyphenyl)-3-isopropyl-1H-indol-5-yl)amino)cyclohexyl)piperazin-1-yl)ethan-1-one]: the values for the IC50 against human TLR9 and against human TLR7 were 4070 nM and 375 nM, respectively.

Take `COc1ccc(-c2[nH]c3ccc(N4CCC(N5CCCN(C(C)=O)CC5)CC4)cc3c2C(C)C)cc1OC` [Example 88, 1-(4-(1-(2-(3,4-dimethoxyphenyl)-3-isopropyl-1H-indol-5-yl)piperidin-4-yl)-1,4-diazepan-1-yl)ethan-1-one]: the IC50 on human TLR9 was 4640 nM; against human TLR7 it was 69 nM.

Regarding `COc1ccc(-c2[nH]c3ccc(NC4CCC(N5CCN(C(C)(C)C)CC5)CC4)cc3c2C(C)C)cc1OC` (stereo not shown) [Example 49, N-(4-(4-(tert-butyl)piperazin-1-yl)cyclohexyl)-2-(3,4-dimethoxyphenyl)-3-isopropyl-1H-indol-5-amine], the figures for the IC50 against human TLR9 and against human TLR7 were 512 nM and 538 nM, respectively.

For the compound `COc1ccc(-c2[nH]c3ccc(NC4CCC(N5CCN(CC(C)C)CC5)CC4)cc3c2C(C)C)cc1OC` (stereo not shown) [Example 51, 2-(3,4-dimethoxyphenyl)-N-(4-(4-isobutylpiperazin-1-yl)cyclohexyl)-3-isopropyl-1H-indol-5-amine], the values for the IC50 on human TLR9 and on human TLR7 were 1400 nM and 767 nM, respectively.

`COc1ccc(-c2[nH]c3ccc(NC4CCC(N5CCN(CC(C)C)CC5)CC4)cc3c2C(C)C)cc1OC` (stereo not shown) [Example 53, 2-(3,4-dimethoxyphenyl)-N-(4-(4-isobutylpiperazin-1-yl)cyclohexyl)-3-isopropyl-1H-indol-5-amine]: the IC50 came out at 1210 nM at human TLR9 and 659 nM at human TLR7.

Turning to `CCc1c(-c2ccc(OC)c(OC)c2)[nH]c2ccc(N(CC)C3CCN(C4CCN(C)CC4)CC3)cc12` [Example 28, 2-(3,4-dimethoxyphenyl)-N,3-diethyl-N-(1′-methyl-1,4′-bipiperidin-4-yl)-1H-indol-5-amine], the IC50 against human TLR9 was determined as 627 nM; against human TLR7, 2220 nM.

The values above are taken from US11306092B2, “Amino indole compounds useful as TLR inhibitors” (BRISTOL-MYERS SQUIBB COMPANY, priority 2017, dated 2022).
